{"source": "paper PMC4884413", "about": "“In vivo therapeutic efficacy and pharmacokinetics of colistin sulfate in an experimental model of enterotoxigenic Escherichia coli infection in weaned pigs” (Veterinary Research, 2016)", "key": {"ETEC: F4 [1]": {"tested_on": "ETEC: F4", "assay": "Fecal ETEC: F4 shedding in challenged weaned pigs", "assay_type": "in vivo", "procedure": "(§1) Pigs were selected based on the presence of the F4 receptor gene by PCR–RFLP as previously described at 4 days of age. Two trials of 48 pigs were conducted using different doses of CS [100 000 IU/kg (trial 1) or 50 000 IU/kg (trial 2)]. In each trial, four groups of 12 pigs were constituted: challenged treated, challenged untreated, unchallenged treated, and unchallenged untreated.\n(§2) For experimental infection of pigs, a nalidixic acid-resistant (Nal^r) variant of ETEC: F4 strain ECL8559 (O149: LT: STa: STb: East1: paa: hemβ: F4), kindly provided by the E. coli Laboratory as described previously, was used. The strain was passaged in a weaned pig to enhance its pathogenicity. A hemolytic, Nal^r colony isolated from the feces of this pig was confirmed to be positive for O149 and the virulence genes F4, STa, STb, LT by multiplex PCR as previously described. This strain, designated ECL8559A, was used in the experimental challenge in this study. After 1-week of acclimatization, 28-day-old pigs in the challenge groups were orally gavaged with 10^9 CFU of the ETEC: F4 strain in 5 mL of trypticase soy broth (Difco Laboratories, Inc., Detroit, MI, USA) following the administration of 10 mL of CaCO3 to neutralize gastric acid.\n(§3) Colistin sulfate (Bond & Beaulac Inc., QC, Canada) was administered by oral gavage in 5 mL of water using a polyethylene tube attached to a syringe, at a dose of 100 000 or 50 000 IU/kg in trials 1 and 2 respectively.\nFresh fecal samples were obtained from pigs using pre-weighed sterile rectal swabs (Puritan Medical Products, Guilford, Maine, USA). Bacteriological examination of fecal samples was performed 1 day before and 1, 2, 3, 5, 6, 7, 8, 10, 13, 20, 27, 36 days after oral challenge to evaluate fecal excretion of the challenge ETEC: F4 strain and total E. coli count. […] Rectal swabs were weighed before and after sampling of pigs for individual fecal material quantification."}, "total E. coli": {"tested_on": "total E. coli", "assay": "Fecal total E. coli shedding in weaned pigs", "assay_type": "in vivo", "procedure": "as §1, §2, §3\nFresh fecal samples were obtained from pigs using pre-weighed sterile rectal swabs (Puritan Medical Products, Guilford, Maine, USA). Bacteriological examination of fecal samples was performed 1 day before and 1, 2, 3, 5, 6, 7, 8, 10, 13, 20, 27, 36 days after oral challenge to evaluate fecal excretion of the challenge ETEC: F4 strain and total E. coli count. One millilitre of buffered peptone water solution (BPW) was added to each swab and selected dilutions were plated on MacConkey agar and 5% bovine blood agar plates containing nalidixic acid at 50 μg/mL (Sigma-Aldrich Canada Ltd., Oakville, ON, Canada) to count the total E. coli population and the hemolytic challenge ETEC: F4 strain respectively, as previously described. In parallel, 5% bovine blood agar plates containing nalidixic acid at 50 μg/mL and CS at 2 μg/mL and MacConkey agar plates containing CS at 2 μg/mL were used to enumerate the CS resistant hemolytic challenge ETEC: F4 and total E. coli population respectively. The plates were incubated aerobically for 24 h at 37 °C. Isolates recovered from media containing 2 μg/mL of colistin were considered to be putative CS-resistant, as previously described. All samples were processed on the day of collection. Rectal swabs were weighed before and after sampling of pigs for individual fecal material quantification."}, "[2]": {"conditions": "intramuscular (IM), pigs, cited from earlier work", "excerpt": "In our study, regardless of the dose, CS treatment led to a decrease of nearly 4 log cfu/g in fecal shedding of ETEC: F4 and total E. coli, but only during the treatment period. […] In our study, the effect of CS on the decrease of ETEC: F4 and total E. ..."}, "ETEC: F4 [3]": {"tested_on": "ETEC: F4", "assay": "Diarrhea score (fecal consistency 0-4) in ETEC: F4 challenged weaned pigs", "assay_type": "in vivo", "conditions": "after 2 days of CS administration (d2), also d3 and d4, both trials, challenged treated vs challenged untreated, p < 0.0001", "excerpt": "as §2, with “acid. […]” for “acid.”\nAfter the oral challenge, pigs were observed daily for signs of anorexia, lethargy and diarrhea. The severity of diarrhea was assessed visually by using a fecal consistency scoring (0, normal; 1, soft feces; 2, mild diarrhea; 3, semi liquid diarrhea and 4, liquid diarrhea) as described by Jamalludeen et al.. The rectal body temperature was monitored daily using a digital thermometer.\nOrdinal diarrhea scores were analyzed with the Cochran-Mantel-Haenszel test at each time period."}, "[4]": {"assay": "Body weight of weaned pigs", "assay_type": "in vivo", "conditions": "both trials, challenged treated compared to challenged untreated pigs", "procedure": "Pigs were weighed individually using an electric scale prior to inoculation and at 6, 19 and 35 days after beginning CS treatment.\nBacterial counts and CS plasma concentrations were log10 transformed prior to data analysis to normalize distributions. Total E. coli counts, ETEC: F4 counts, rectal temperature, and body weight were analyzed with repeated-measures ANOVA, with time as a within-subject factor and group as the between-subject factor. A priori contrasts were performed to compare group means at different time periods and to compare pre- and post-infection means in each treatment. For these multiple comparisons, the alpha level was adjusted downward using the Benjamini-Hochberg sequential procedure. A similar procedure was used to analyze CS plasma concentration to determine effect of ETEC: F4 oral challenge on CS intestinal absorption in pigs."}, "[5]": {"assay": "CS plasma concentrations by HPLC-MS/MS after oral administration", "assay_type": "in vivo, pigs", "conditions": "both trials", "procedure": "as §3\nBlood samples (3 mL) were collected using potassium EDTA tubes, from the jugular vein of eight pigs in each treated group, challenged or not of the two trials, at 0.5, 12, 24 and 48 h after the last CS oral administration on day 5.\nPlasma was separated by centrifugation at 3000 g for 10 min and stored at −20 °C prior to analysis. These samples were used to determine CS plasma concentrations by high performance HPLC–MS/MS, in order to determine the slope of the terminal phase (λz). The λz was calculated as the negative of the slope of the log-linear regression of the natural logarithm concentration–time curve during the terminal phase. The λz is an important parameter used to determine CS elimination half-life (T1/2), which is an index of drug persistence in the body. Bioanalyses and pharmacokinetic analyses were performed as previously described. The quantification of CS was based on the peak area ratio of the analyte with the internal standard. A calibration curve was used for determining the concentration of CS in all unknown samples by comparing the peak area ratio of the unknown samples to a set of standard samples of known concentration. […]"}, "E. coli K99": {"tested_on": "E. coli K99", "conditions": "CS 300 mg/kg of diet, 7 or 14 days, weanling pigs challenged with E. coli K99; cited from earlier work"}}, "note": "Counter-ions that a name gives are not always drawn. Like-named read-outs stand apart in the source and are kept apart here. Bridge positions count the residues as written; N and C are the ends. Square brackets hold non-standard residues; d marks the D form. Peptide text beside a SMILES is read from it. * marks the point of attachment. X1 = CC[C@H](C)CCCCC(=O)*; Dab = NCC[C@H](N)C(=O)O", "data": [{"smiles": "CC[C@H](C)CCCCC(=O)N[C@@H](CCN)C(=O)N[C@H](C(=O)N[C@@H](CCN)C(=O)N[C@H]1CCNC(=O)[C@H]([C@@H](C)O)NC(=O)[C@H](CCN)NC(=O)[C@H](CCN)NC(=O)[C@H](CC(C)C)NC(=O)[C@@H](CC(C)C)NC(=O)[C@H](CCN)NC1=O)[C@@H](C)O", "note": "[Colistin sulfate] (X1-[Dab]T[Dab][Dab][Dab][dL]L[Dab][Dab]T; lactam 4-C)", "values": [{"measurement": "fecal ETEC: F4 shedding", "setting": "ETEC: F4 [1]; both trials (100 000 or 50 000 IU/kg oral, twice daily, 5 days), between d2 and d6, treated vs untreated challenged pigs, p < 0.0001", "value": "significant reduction"}, {"measurement": "levels of ETEC: F4 in feces", "setting": "ETEC: F4 [1]; both trials, most pigs, between d4 and d6", "value": "dropped below our detection limit"}, {"measurement": "decrease in fecal shedding of ETEC: F4", "setting": "ETEC: F4 [1]; regardless of the dose, only during the treatment period", "value": "~4", "unit": "log cfu/g"}, {"measurement": "fecal total E. coli shedding", "setting": "total E. coli; trial 1, 100 000 IU/kg oral twice daily 5 days, d1 to d5, challenged treated vs challenged untreated, p < 0.0001", "value": "significant reduction"}, {"measurement": "fecal total E. coli shedding", "setting": "total E. coli; trial 1, 100 000 IU/kg, d2 to d6, unchallenged treated vs unchallenged untreated, p < 0.0001", "value": "significant reduction"}, {"measurement": "fecal total E. coli shedding", "setting": "total E. coli; trial 2, 50 000 IU/kg oral twice daily 5 days, d1 to d6, challenged treated vs challenged untreated, p < 0.0007", "value": "significant reduction"}, {"measurement": "fecal total E. coli shedding", "setting": "total E. coli; trial 2, 50 000 IU/kg, d2 to d5, unchallenged treated vs unchallenged untreated, p < 0.0001", "value": "significant reduction"}, {"measurement": "systemic bioavailability", "setting": "[2]; 2.5 mg/kg bw", "value": 95.94, "unit": "%"}, {"measurement": "systemic bioavailability", "setting": "[2]; 5 mg/kg bw", "value": 88.45, "unit": "%"}, {"measurement": "diarrhea scores", "setting": "ETEC: F4 [3]", "value": "significantly decreased"}, {"measurement": "pig weight losses", "setting": "[4]", "value": "did not prevent pig weight losses"}, {"measurement": "plasma concentrations", "setting": "[5]; 48 h following the last CS administration, LLOQ 1 ng/mL of plasma", "value": "below the LLOQ"}, {"measurement": "CS plasma concentrations, challenged treated compared to unchallenged treated groups", "setting": "[5]; all sampling times", "value": "higher"}, {"measurement": "reduction of the number of E. coli in cecal digesta", "setting": "E. coli K99", "value": 4.38, "unit": "log cfu/g"}, {"measurement": "reduction of the number of E. coli in ileal digesta", "setting": "E. coli K99", "value": 5.30, "unit": "log cfu/g"}]}]}
